According to BindingDB's records for doi:10.1021/jm00017a003 (Sterling Winthrop Pharmaecuticals Research Division, 1995):

Assay: The compound was tested for inhibition of HIV-1 replication in SW480 cells using HIV tat assay

Row | Structure (SMILES) | IC50
1 | C[C@@]12CCCC[C@]13O[C@@H]3C(=O)C(C#N)C2 (some centres not stated) | 34 µM
2 | C[C@]12CCCC[C@]1(O)[C@H](Cl)C(=O)C(C(N)=O)C2 (some centres not stated) | 32.1 µM
3 | C[C@]12CCCC[C@@]13O[C@H]3C(=O)C(C#N)C2 (some centres not stated) | 278 µM
4 | C[C@@]12CCCC[C@@]1(O)[C@@H](Cl)C(=O)C(C(=O)Nc1ccccc1)C2 (some centres not stated) | 7 µM
5 | C[C@]12CC[C@H]3[C@@H](CC[C@@]45O[C@@H]4C(=O)C(S(=O)(=O)c4ccccc4)C[C@]35C)[C@@H]1CC[C@@H]2O (some centres not stated) | 10.3 µM
6 | CC(=O)O[C@H]1CC[C@H]2[C@@H]3CC[C@@]45O[C@@H]4C(=O)C(S(C)(=O)=O)C[C@]5(C)[C@H]3CC[C@]12C (some centres not stated) | 2.6 µM
7 | CC(=O)O[C@H]1CC[C@H]2[C@@H]3CC[C@@]45O[C@@H]4C(=O)C(C(N)=O)C[C@]5(C)[C@H]3CC[C@]12C (some centres not stated) | 2.6 µM
8 | C[C@]12CC[C@H]3[C@@H](CC[C@@]45O[C@@H]4C(=O)C(C(N)=O)C[C@]35C)[C@@H]1CC[C@@H]2O (some centres not stated) | 14.3 µM
9 | COc1ccc(NC(=O)C2C[C@]3(C)CCCC[C@@]3(O)[C@@H](Cl)C2=O)cc1 (some centres not stated) | 33.5 µM
10 | C[C@@]12CCCC[C@]13O[C@@H]3C(=O)C(C(=O)Nc1ccccc1)C2 (some centres not stated) | 2.8 µM
11 | CC(=O)O[C@H]1CC[C@H]2[C@@H]3CC[C@@]45O[C@@H]4C(=O)C(C#N)C[C@]5(C)[C@H]3CC[C@]12C (some centres not stated) | 24.5 µM
12 | CC(=O)O[C@H]1CC[C@H]2[C@@H]3CC[C@@]4(O)[C@@H](Cl)C(=O)C(C(N)=O)C[C@]4(C)[C@H]3CC[C@]12C (some centres not stated) | 8.4 µM
13 | COc1ccc(NC(=O)C2C[C@]3(C)CCCC[C@]34O[C@@H]4C2=O)cc1 (some centres not stated) | 25.7 µM
14 | C[C@@]12CCCC[C@@]1(O)[C@@H](Cl)C(=O)C(C(N)=O)C2 (some centres not stated) | 16.5 µM
15 | C[C@@]12CCCC[C@]13O[C@@H]3C(=O)C(C(N)=O)C2 (some centres not stated) | 9.9 µM
16 | C[C@]12CCCC[C@@]13O[C@H]3C(=O)C(C(N)=O)C2 (some centres not stated) | 72 µM
17 | C[C@]12CC[C@H]3[C@@H](CC[C@@]45O[C@@H]4C(=O)CC[C@]35C)[C@@H]1CC[C@@H]2O | 15.4 µM
18 | COc1ccc(NC(=O)C2CC(C)(C)C3OC3C2=O)cc1 (configuration not stated) | 21.4 µM
19 | C[C@]12CCC3C(CC[C@@]45O[C@@H]4C(=O)C(S(C)(=O)=O)C[C@]35C)C1CC[C@@H]2O (some centres not stated) | 8.4 µM
20 | COC(=O)C1C[C@]2(C)[C@H]3CC[C@]4(C)[C@@H](OC(C)=O)CC[C@H]4[C@@H]3CC[C@]23O[C@@H]3C1=O (some centres not stated) | 2.7 µM
21 | CC1(C)CC(C(=O)Nc2c(Cl)cccc2Cl)C(=O)C2OC21 (configuration not stated) | 31.7 µM
22 | COC(=O)C1C[C@]2(C)[C@H]3CC[C@]4(C)[C@@H](O)CC[C@H]4[C@@H]3CC[C@]23O[C@@H]3C1=O (some centres not stated) | 3.6 µM
